In US9579314B2 (priority 2015, dated 2017) one finds IC50 data, which are given here for eight compounds.

A value given as a limit tells only on which side of the number the result lay.

The target of the assay is Human β2 adrenoceptor (Homo sapiens, UniProt P07550). Conditions: read-out: B2 binding affinity.
Sequence of Human β2 adrenoceptor (P07550 whole entry): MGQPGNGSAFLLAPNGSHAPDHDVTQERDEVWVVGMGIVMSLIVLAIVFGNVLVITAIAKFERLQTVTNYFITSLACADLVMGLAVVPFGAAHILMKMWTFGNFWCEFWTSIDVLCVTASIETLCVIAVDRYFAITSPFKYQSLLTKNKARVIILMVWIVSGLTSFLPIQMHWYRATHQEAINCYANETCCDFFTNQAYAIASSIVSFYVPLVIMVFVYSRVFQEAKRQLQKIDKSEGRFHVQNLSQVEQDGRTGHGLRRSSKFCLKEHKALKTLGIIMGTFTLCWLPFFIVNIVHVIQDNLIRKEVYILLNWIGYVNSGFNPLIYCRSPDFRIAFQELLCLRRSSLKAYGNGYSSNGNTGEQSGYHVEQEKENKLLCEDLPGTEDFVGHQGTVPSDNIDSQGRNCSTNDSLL
For `CN1CC(OC(=O)[C@](O)(c2ccccc2)c2cccc(OCCCCCNC[C@H](O)c3ccc(O)c4[nH]c(=O)ccc34)c2)C1` [Compound 26, (S)-1-methylazetidin-3-yl 2-hydroxy-2-(3-((5-(((R)-2-hydroxy-2-(8-hydroxy-2-oxo-1,2-dihydroquinolin-5-yl)ethyl)amino)pentyl)oxy)phenyl)-2-phenylacetate], the IC50 was < 0.3 nM.
Regarding `O=C(NCCCOc1cccc([C@](O)(C(=O)OC2CCN(Cc3ccccc3)CC2)c2ccccc2)c1)c1ccc(CNC[C@H](O)c2ccc(O)c3[nH]c(=O)ccc23)cc1` [Compound 158, 1-Benzylpiperidin-4-yl (S)-2-hydroxy-2-(3-(3-(4-((((R)-2-hydroxy-2-(8-hydroxy-2-oxo-1,2-dihydroquinolin-5-yl)ethyl)amino)methyl)benzamido)propoxy)phenyl)-2-phenylacetate], the IC50 is < 0.3 nM.
With `O=C(NCCCOc1cccc([C@](O)(C(=O)OC[C@H]2CCN(Cc3ccccc3)C2)c2ccccc2)c1)c1ccc(CNC[C@H](O)c2ccc(O)c3[nH]c(=O)ccc23)cc1` [Compound 160, ((S)-1-benzylpyrrolidin-3-yl)methyl (S)-2-hydroxy-2-(3-(3-(4-((((R)-2-hydroxy-2-(8-hydroxy-2-oxo-1,2-dihydroquinolin-5-yl)ethyl)amino)methyl)benzamido)propoxy)phenyl)-2-phenylacetate], the IC50 is < 0.3 nM.
For `CN1CCC(OC(=O)[C@@](O)(c2ccccc2)c2cccc(OCCCCCNC[C@H](O)c3ccc(O)c4[nH]c(=O)ccc34)c2)CC1` [Compound 22, (R)-1-methylpiperidin-4-yl 2-hydroxy-2-(3-((5-(((R)-2-hydroxy-2-(8-hydroxy-2-oxo-1,2-dihydroquinolin-5-yl)ethyl)amino)pentyl)oxy)phenyl)-2-phenylacetate] the value was < 0.3 nM.
For the compound `O=C(NCCCOc1cccc([C@](O)(C(=O)O[C@H]2CCN(Cc3ccccc3)C2)c2ccccc2)c1)c1ccc(CNC[C@H](O)c2ccc(O)c3[nH]c(=O)ccc23)cc1` [Compound 164, (S)-1-benzylpyrrolidin-3-yl (S)-2-hydroxy-2-(3-(3-(4-((((R)-2-hydroxy-2-(8-hydroxy-2-oxo-1,2-dihydroquinolin-5-yl)ethyl)amino)methyl)benzamido)propoxy)phenyl)-2-phenylacetate], the IC50 lay in the range of 0.3 to 3 nM.
As for `CN(C)CCOC(=O)[C@](O)(c1ccccc1)c1cccc(OCCCCCNC[C@H](O)c2ccc(O)c3[nH]c(=O)ccc23)c1` [Compound 17, (S)-2-(dimethylamino)ethyl 2-hydroxy-2-(3-((5-(((R)-2-hydroxy-2-(8-hydroxy-2-oxo-1,2-dihydroquinolin-5-yl)ethyl)amino)pentyl)oxy)phenyl)-2-phenylacetate], the IC50 is 0.3 to 3 nM.
Consider `COc1cc(NC(=O)NCc2ccc(COc3cccc([C@](O)(C(=O)OC4CCN(Cc5ccccc5)CC4)c4ccccc4)c3)cc2)ccc1CNC[C@H](O)c1ccc(O)c2[nH]c(=O)ccc12` [Compound 167, 1-benzylpiperidin-4-yl (S)-2-hydroxy-2-(3-((4-((3-(4-((((R)-2-hydroxy-2-(8-hydroxy-2-oxo-1,2-dihydroquinolin-5-yl)ethyl)amino)methyl)-3-methoxyphenyl)ureido)methyl)benzyl)oxy)phenyl)-2-phenylacetate], for which the IC50 was 0.3 to 3 nM.
In the case of `CN1CC[C@@H](OC(=O)[C@@](O)(c2ccccc2)c2cccc(OCCCCCNC[C@H](O)c3ccc(O)c4[nH]c(=O)ccc34)c2)C1` [Compound 20, (R)-(R)-1-methylpyrrolidin-3-yl 2-hydroxy-2-(3-((5-(((R)-2-hydroxy-2-(8-hydroxy-2-oxo-1,2-dihydroquinolin-5-yl)ethyl)amino)pentyl)oxy)phenyl)-2-phenylacetate], the IC50 was < 0.3 nM.
